# Laboratory results reported in patent US20240293537A1, “A[…]-GRAFTED LAURYL GAMMA-POL[…] USE THEREOF” (JIANGSU ACADEMY OF AGRICULTURAL SCIENCES, priority 2021, published 2024).
# Columns and labels:
# [1] = system: Female Balb/c mice; conditions: as adjuvant with OVA, 200 μL/mouse, serum 28 days after inoculation
# Method: In addition, 500 μg/mL of an OVA solution (abbreviated as OVA) was prepared by taking a PBS buffer with a pH of 7.4 as a solvent; 100 μg/mL of an FIP solution (abbreviated as FIP) was prepared by taking a PBS buffer with a pH of 7.4 as a solvent.
# After inoculation, the skin condition of the injection site was observed over one week. Blood was collected from the orbit 28 days after inoculation, and sera were separated and the antibody titer was measured.
# The antibody titer was measured by adopting the following method: 10 μg/mL of an OVA protein solution was prepared by taking 0.05 mol/L of a Na2CO3—NaHCO3 buffer with a pH of 9.6 as a solvent. […]
# [2] = system: RAW 264.7 cells
# Method: After incubation for 24 h, the cells were pipetted, washed three times with PBS, centrifuged and finally resuspended in ice PBS before assay with flow cytometer (BD FACSCalibur flow cytometer).
Compound,IgG titer (OD450 nm) [1],solubility in acidic aqueous solution (acidic aqueous solution with a pH≤6),solubility in solvent phase (hot DMSO and DMF solutions),"fluorescence of cells (uptake) ([2]; RAW 264.7, 24 h, FIP 50 μg/mL)","fluorescence intensity of the cells with increase of FIP concentration ([2]; RAW 264.7, different FIP concentrations)"
"CC(C)Cn1cnc2c(N)nc3ccccc3c21 [Vaccine R837, imiquimod]",3.07,can be dissolved,slightly soluble,–,–
fluorescein-labeled amphiphilic imiquimod-grafted lauryl γ-polyglutamate [FIP],2.1,–,–,a distinct fluorescence peak could still be seen,gradually increased
